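These data come from cells grown in 96-well plates and exposed to compound for 48 hours at five concentrations. TGI: total growth inhibition.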
Columns and labels:
Experiment in all cases: inhibition of tumour cell growth, NCI panel, 48 h
HL-60(TB) leukemia = test system: HL-60(TB) leukemia
TK-10 renal = test system: TK-10 renal
LOX IMVI melanoma = test system: LOX IMVI melanoma
MOLT-4 leukemia = test system: MOLT-4 leukemia
PC-3 prostate = test system: PC-3 prostate
NCI-H23 lung = test system: NCI-H23 lung
SK-OV-3 ovarian = test system: SK-OV-3 ovarian
ACHN renal = test system: ACHN renal
HCT-15 colon = test system: HCT-15 colon
M14 melanoma = test system: M14 melanoma
MDA-MB-435 = test system: MDA-MB-435
SR leukemia = test system: SR leukemia
OVCAR-4 ovarian = test system: OVCAR-4 ovarian
RXF 393 renal = test system: RXF 393 renal
SK-MEL-5 melanoma = test system: SK-MEL-5 melanoma
UACC-257 melanoma = test system: UACC-257 melanoma
SK-MEL-2 melanoma = test system: SK-MEL-2 melanoma
HOP-92 NSCLC = test system: HOP-92 NSCLC
CCRF-CEM leukemia = test system: CCRF-CEM leukemia
A549 NSCLC = test system: A549 NSCLC
HCT-116 colon = test system: HCT-116 colon
NCI-H226 lung = test system: NCI-H226 lung
UO-31 renal = test system: UO-31 renal
U251 CNS = test system: U251 CNS
786-0 renal = test system: 786-0 renal
T-47D breast = test system: T-47D breast
MDA-N = test system: MDA-N
A498 renal = test system: A498 renal
OVCAR-3 ovarian = test system: OVCAR-3 ovarian
SN12C renal = test system: SN12C renal
COLO 205 colon = test system: COLO 205 colon
SNB-19 CNS = test system: SNB-19 CNS
K-562 leukemia = test system: K-562 leukemia
NCI/ADR-RES ovarian = test system: NCI/ADR-RES ovarian
CAKI-1 renal = test system: CAKI-1 renal
EKVX NSCLC = test system: EKVX NSCLC
KM12 colon = test system: KM12 colon
NCI-H460 lung = test system: NCI-H460 lung
BT-549 breast = test system: BT-549 breast
HCC-2998 colon = test system: HCC-2998 colon
SK-MEL-28 melanoma = test system: SK-MEL-28 melanoma
SF-295 CNS = test system: SF-295 CNS
MCF7 breast = test system: MCF7 breast
HOP-62 NSCLC = test system: HOP-62 NSCLC
OVCAR-5 ovarian = test system: OVCAR-5 ovarian
SW-620 colon = test system: SW-620 colon
DU-145 prostate = test system: DU-145 prostate
OVCAR-8 ovarian = test system: OVCAR-8 ovarian
SNB-75 CNS = test system: SNB-75 CNS
RPMI-8226 leukemia = test system: RPMI-8226 leukemia
SF-268 CNS = test system: SF-268 CNS
HS 578T breast = test system: HS 578T breast
MALME-3M melanoma = test system: MALME-3M melanoma
SF-539 CNS = test system: SF-539 CNS
MDA-MB-231 breast = test system: MDA-MB-231 breast
UACC-62 melanoma = test system: UACC-62 melanoma
NCI-H522 lung = test system: NCI-H522 lung

## COC(=O)C1(C(=O)OC)N=C(C)OC1C(C)C (centres undefined)
HL-60(TB) leukemia
  TGI: > 100 µM
TK-10 renal
  TGI: > 100 µM
LOX IMVI melanoma
  TGI: > 100 µM
MOLT-4 leukemia
  TGI: > 100 µM
PC-3 prostate
  TGI: > 100 µM
NCI-H23 lung
  TGI: > 100 µM
SK-OV-3 ovarian
  TGI: > 100 µM
ACHN renal
  TGI: > 100 µM
HCT-15 colon
  TGI: > 100 µM
M14 melanoma
  TGI: > 100 µM
MDA-MB-435
  TGI: > 100 µM
SR leukemia
  TGI: > 100 µM
OVCAR-4 ovarian
  TGI: > 100 µM
RXF 393 renal
  TGI: > 100 µM
SK-MEL-5 melanoma
  TGI: > 100 µM
UACC-257 melanoma
  TGI: > 100 µM
SK-MEL-2 melanoma
  TGI: > 100 µM
HOP-92 NSCLC
  TGI: > 100 µM
CCRF-CEM leukemia
  TGI: > 100 µM
A549 NSCLC
  TGI: > 100 µM
HCT-116 colon
  TGI: > 100 µM
NCI-H226 lung
  TGI: > 100 µM
UO-31 renal
  TGI: > 100 µM
U251 CNS
  TGI: > 100 µM
786-0 renal
  TGI: > 100 µM
T-47D breast
  TGI: > 100 µM
MDA-N
  TGI: > 100 µM
A498 renal
  TGI: > 100 µM
OVCAR-3 ovarian
  TGI: > 100 µM
SN12C renal
  TGI: > 100 µM
COLO 205 colon
  TGI: > 100 µM
SNB-19 CNS
  TGI: > 100 µM
K-562 leukemia
  TGI: > 100 µM
NCI/ADR-RES ovarian
  TGI: > 100 µM
CAKI-1 renal
  TGI: > 100 µM
EKVX NSCLC
  TGI: > 100 µM
KM12 colon
  TGI: > 100 µM
NCI-H460 lung
  TGI: > 100 µM
BT-549 breast
  TGI: > 100 µM
HCC-2998 colon
  TGI: > 100 µM
SK-MEL-28 melanoma
  TGI: > 100 µM
SF-295 CNS
  TGI: > 100 µM
MCF7 breast
  TGI: > 100 µM
HOP-62 NSCLC
  TGI: > 100 µM
OVCAR-5 ovarian
  TGI: > 100 µM
SW-620 colon
  TGI: > 100 µM
DU-145 prostate
  TGI: > 100 µM
OVCAR-8 ovarian
  TGI: > 100 µM
SNB-75 CNS
  TGI: > 100 µM
RPMI-8226 leukemia
  TGI: > 100 µM

## COc1cc(/C=C2/SC(c3ccccc3)N(c3cccc([N+](=O)[O-])c3)C2=O)cc(OC)c1OC (centres undefined)
SF-268 CNS
  TGI: > 100 µM
HL-60(TB) leukemia
  TGI: > 100 µM
TK-10 renal
  TGI: > 100 µM
LOX IMVI melanoma
  TGI: > 100 µM
MOLT-4 leukemia
  TGI: > 100 µM
HS 578T breast
  TGI: > 100 µM
NCI-H23 lung
  TGI: > 100 µM
SK-OV-3 ovarian
  TGI: > 100 µM
ACHN renal
  TGI: > 100 µM
HCT-15 colon
  TGI: > 100 µM
M14 melanoma
  TGI: > 100 µM
MDA-MB-435
  TGI: 86.4 µM
MALME-3M melanoma
  TGI: > 100 µM
OVCAR-4 ovarian
  TGI: > 100 µM
RXF 393 renal
  TGI: > 100 µM
SK-MEL-5 melanoma
  TGI: > 100 µM
UACC-257 melanoma
  TGI: > 100 µM
SK-MEL-2 melanoma
  TGI: > 100 µM
HOP-92 NSCLC
  TGI: > 100 µM
CCRF-CEM leukemia
  TGI: > 100 µM
A549 NSCLC
  TGI: > 100 µM
HCT-116 colon
  TGI: > 100 µM
NCI-H226 lung
  TGI: > 100 µM
SF-539 CNS
  TGI: > 100 µM
UO-31 renal
  TGI: > 100 µM
U251 CNS
  TGI: > 100 µM
786-0 renal
  TGI: > 100 µM
T-47D breast
  TGI: > 100 µM
MDA-N
  TGI: 78.6 µM
A498 renal
  TGI: > 100 µM
OVCAR-3 ovarian
  TGI: > 100 µM
MDA-MB-231 breast
  TGI: > 100 µM
SN12C renal
  TGI: > 100 µM
COLO 205 colon
  TGI: > 100 µM
SNB-19 CNS
  TGI: > 100 µM
K-562 leukemia
  TGI: > 100 µM
NCI/ADR-RES ovarian
  TGI: > 100 µM
UACC-62 melanoma
  TGI: > 100 µM
CAKI-1 renal
  TGI: > 100 µM
EKVX NSCLC
  TGI: > 100 µM
KM12 colon
  TGI: > 100 µM
NCI-H460 lung
  TGI: > 100 µM
BT-549 breast
  TGI: > 100 µM
HCC-2998 colon
  TGI: > 100 µM
SK-MEL-28 melanoma
  TGI: > 100 µM
SF-295 CNS
  TGI: > 100 µM
MCF7 breast
  TGI: > 100 µM
HOP-62 NSCLC
  TGI: > 100 µM
OVCAR-5 ovarian
  TGI: > 100 µM
NCI-H522 lung
  TGI: > 100 µM
SW-620 colon
  TGI: > 100 µM
DU-145 prostate
  TGI: > 100 µM
OVCAR-8 ovarian
  TGI: > 100 µM
RPMI-8226 leukemia
  TGI: > 100 µM
